{"source": "patent US9796719B2", "about": "“Compounds and pharmaceutical compositions thereof for the treatment of inflammatory disorders” (GALAPAGOS NV, priority 2013, dated 2017)", "data": [{"molecular_target": "hENPP2 (UniProtKB/SwissProt Sequence ref Q13822) (Homo sapiens (Human), UniProt Q13822)", "assay": "LPC hENPP2 assay (choline release, LPC as substrate)", "type": "biochemical", "procedure,_shortened": "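Detection is coupled: choline oxidase produces peroxide, which HRP uses to form quinoneimine dye from TOOS and 4-aminoantipyrine, read at 555 nm. The reaction is stopped with 20 mM EGTA in the developer mix, then incubated 30 min at room temperature; inhibition lowers signal.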", "units": {"IC50": "nM"}, "values": [{"smiles": "CCc1nc2ccc(N3CC[C@H](NCC(=O)N4CC(O)C4)C3)nn2c1N(C)c1nc(-c2ccc(F)cc2)c(C#N)s1", "note": "[Cpd 174, (S)-2-((2-ethyl-6-(3-(2-(3-hydroxyazetidin-1-yl)-2-oxoethylamino)pyrrolidin-1-yl)imidazo[1,2-b]pyridazin-3-yl)(methyl)amino)-4-(4-fluorophenyl) thiazole-5-carbonitrile]", "IC50": "0.01 to 100"}, {"smiles": "CCc1nc2ccc(N3CC[C@H](NCC(=O)N(C)C)C3)nn2c1N(C)c1nc(-c2ccc(F)cc2)c(C#N)s1", "note": "[Cpd 175, (S)-2-(1-(3-((5-cyano-4-(4-fluorophenyl)thiazol-2-yl)(methyl)amino)-2-ethylimidazo[1,2-b]pyridazin-6-yl)pyrrolidin-3-ylamino)-N,N-dimethylacetamide]", "IC50": "0.01 to 100"}, {"smiles": "CCc1nc2ccc(N3CC[C@@H](NCC(=O)N4CC(O)C4)C3)nn2c1N(C)c1nc(-c2ccc(F)cc2)c(C#N)s1", "note": "[Cpd 176, (R)-2-((2-ethyl-6-(3-(2-(3-hydroxyazetidin-1-yl)-2-oxoethylamino)pyrrolidin-1-yl)imidazo[1,2-b]pyridazin-3-yl)(methyl)amino)-4-(4-fluorophenyl) thiazole-5-carbonitrile]", "IC50": "0.01 to 100"}, {"smiles": "CCc1nc2ccc(N3CC[C@@H](NCC(=O)N(C)C)C3)nn2c1N(C)c1nc(-c2ccc(F)cc2)c(C#N)s1", "note": "[Cpd 177, (R)-2-(1(3-((5-cyano-4-(4-fluorophenyl)thiazol-2-yl)(methyl)amino)-2-ethylimidazo[1,2-b]pyridazin-6-yl)pyrrolidin-3-ylamino)-N,N-dimethylacetamide]", "IC50": "0.01 to 100"}, {"smiles": "CCc1nc2ccc(N3CCC(N4CCC(CO)CC4)C3)nn2c1N(C)c1nc(-c2ccc(F)cc2)c(C#N)s1", "note": "(stereo not drawn) [Cpd 179, 2-((2-ethyl-6-(3-(4-(hydroxymethyl)piperidin-1-yl)pyrrolidin-1-yl)imidazo[1,2-b]pyridazin-3-yl)(methyl)amino)-4-(4-fluorophenyl) thiazole-5-carbonitrile]", "IC50": "0.01 to 100"}, {"smiles": "CCc1nc2ccc(N3CCC(N4CCN(C(C)=O)CC4)C3)nn2c1N(C)c1nc(-c2ccc(F)cc2)c(C#N)s1", "note": "(stereo not drawn) [Cpd 180, 2-((6-(3-(4-acetoylpiperazin-1-yl)pyrrolidin-1-yl)-2-ethylimidazo[1,2-b]pyridazin-3-yl)(methyl)amino)-4-(4-fluorophenyl) thiazole-5-carbonitrile]", "IC50": "0.01 to 100"}, {"smiles": "CCc1nc2ccc(N3CCC(N4CCC(N(C)C(C)=O)CC4)C3)nn2c1N(C)c1nc(-c2ccc(F)cc2)c(C#N)s1", "note": "(stereo not drawn) [Cpd 181, N-(1-(1-(3-((5-cyano-4-(4-fluorophenyl)thiazol-2-yl)(methyl)amino)-2-ethylimidazo[1,2-b]pyridazin-6-yl)pyrrolidin-3-yl)piperidin-4-yl)-N-methylacetamide]", "IC50": "0.01 to 100"}, {"smiles": "CCc1nc2ccc(N3CCC(N4CCC(O)CC4)C3)nn2c1N(C)c1nc(-c2ccc(F)cc2)c(C#N)s1", "note": "(stereo not drawn) [Cpd 182, 2-((2-ethyl-6-(3-(4-hydroxypiperidin-1-yl)pyrrolidin-1-yl)imidazo[1,2-b]pyridazin-3-yl)(methyl)amino)-4-(4-fluorophenyl) thiazole-5-carbonitrile]", "IC50": "0.01 to 100"}, {"smiles": "CCc1nc2ccc(N3CCC(N4CCC(OC)CC4)C3)nn2c1N(C)c1nc(-c2ccc(F)cc2)c(C#N)s1", "note": "(stereo not drawn) [Cpd 183, 2-((2-ethyl-6-(3-(4-methoxypiperidin-1-yl)pyrrolidin-1-yl)imidazo[1,2-b]pyridazin-3-yl)(methyl)amino)-4-(4-fluorophenyl) thiazole-5-carbonitrilc]", "IC50": "0.01 to 100"}, {"smiles": "CCc1nc2ccc(N3C[C@H](O)[C@@H](N4CCOCC4)C3)nn2c1N(C)c1nc(-c2ccc(F)cc2)c(C#N)s1", "note": "[Cpd 184]", "IC50": "0.01 to 100"}, {"smiles": "CCc1nc2ccc(N3CCC(O)C3)nn2c1N(C)c1nc(-c2ccc(F)cc2)c(CO)s1", "note": "(stereo not drawn) [Cpd 185, 1-(2-ethyl-3-((4-(4-fluorophenyl)-5-(hydroxymethyl)thiazol-2-yl)(methyl)amino)imidazo[1,2-b]pyridazin-6-yl)pyrrolidin-3-ol]", "IC50": "> 1000"}, {"smiles": "CCc1nc2ccc(N3CCC4(CCOCC4)C3)nn2c1N(C)c1nc(-c2ccc(F)cc2)c(CO)s1", "note": "[Cpd 186, (2-((2-ethyl-6-(8-oxa-2-azaspiro[4.5]decan-2-yl)[1,2-b]pyridazin-3-yl)(methyl)amino)-4-(4-fluorophenyl)thiazol-5-yl)methanol]", "IC50": "100 to 500"}, {"smiles": "CCc1nc2ccc(N3CC(NC(=O)OC(C)(C)C)C3)nn2c1N(C)c1nc(-c2ccc(F)cc2)c(C#N)s1", "note": "[Cpd 187, [1-(3-{[5-Cyano-4-(4-fluoro-phenyl)-thiazol-2-yl]-methyl-amino}-2-ethyl-imidazo[1,2-b]pyridazin-6-yl)-azetidin-3-yl]-carbamic acid tert-butyl ester]", "IC50": "100 to 500"}, {"smiles": "CCc1nc2ccc(N3CC(N)C3)nn2c1N(C)c1nc(-c2ccc(F)cc2)c(C#N)s1", "note": "[Cpd 188, 2-((6-(3-aminoazetidin-1-yl)-2-ethylimidazo[1,2-b]pyridazin-3-yl)(methyl)amino)-4-(4-fluorophenyl) thiazole-5-carbonitrile]", "IC50": "0.01 to 100"}, {"smiles": "CCc1nc2ccc(N3CC(NCC(=O)N4CC(O)C4)C3)nn2c1N(C)c1nc(-c2ccc(F)cc2)c(C#N)s1", "note": "[Cpd 189, 2-((2-ethyl-6-(3-(2-(3-hydroxyazetidin-1-yl)-2-oxoethylamino)azetidin-1-yl)imidazo[1,2-b]pyridazin-3-yl)(methyl)amino)-4-(4-fluorophenyl) thiazole-5-carbonitrile]", "IC50": "0.01 to 100"}, {"smiles": "CCc1nc2ccc(N3CC(NS(C)(=O)=O)C3)nn2c1N(C)c1nc(-c2ccc(F)cc2)c(C#N)s1", "note": "[Cpd 190, N-(1-(3-((5-cyano-4-(4-fluorophenyl)thiazol-2-yl)(methyl)amino)-2-ethylimidazo[1,2-b]pyridazin-6-yl)azetidin-3-yl)methane-sulfonamide]", "IC50": "0.01 to 100"}, {"smiles": "CCc1nc2ccc(N3CC(C(=O)N4CCOCC4)C3)nn2c1N(C)c1nc(-c2ccc(F)cc2)c(C#N)s1", "note": "[Cpd 191, 2-((2-ethyl-6-(3-(morpholine-4-carbonyl)azetidin-1-yl)imidazo[1,2-b]pyridazin-3-yl)(methyl)amino)-4-(4-fluorophenyl) thiazole-5-carbonitrile]", "IC50": "100 to 500"}, {"smiles": "CCc1nc2ccc(N3CC(C(=O)N4CCC(O)C4)C3)nn2c1N(C)c1nc(-c2ccc(F)cc2)c(C#N)s1", "note": "(stereo not drawn) [Cpd 192, 2-((2-ethyl-6-(3-(3-hydroxy-pyrrolidine-1-carbonyl)azetidin-1-yl)imidazo[1,2-b]pyridazin-3-yl)(methyl)amino)-4-(4-fluorophenyl) thiazole-5-carbonitrile]", "IC50": "100 to 500"}, {"smiles": "CCc1nc2ccc(C3CCN(CC(=O)N(C)C)CC3)nn2c1N(C)c1nc(-c2ccc(F)cc2)c(CO)s1", "note": "[Cpd 203, 2-(4-(2-ethyl-3-((4-(4-fluorophenyl)-5-(hydroxymethyl)thiazol-2-yl)(methyl)amino)imidazo[1,2-b]pyridazin-6-yl)piperidin-1-yl)-N,N-dimethylacetamide]", "IC50": "500 to 1000"}, {"smiles": "CCc1nc2ccc(C3=CCN(S(C)(=O)=O)CC3)nn2c1N(C)c1nc(-c2ccc(F)cc2C#N)cs1", "note": "[Cpd 204, 2-(2-((2-ethyl-6-(1-(methylsulfonyl)-1,2,3,6-tetrahydropyridin-4-yl)imidazo[1,2-b]pyridazin-3-yl)(methyl)amino)thiazol-4-yl)-5-fluorobenzonitrile]", "IC50": "100 to 500"}, {"smiles": "CCc1nc2ccc(C3CCN(CC(=O)N4CC(O)C4)CC3)nn2c1N(C)c1nc(-c2ccc(F)cc2C#N)cs1", "note": "[Cpd 207, 2-(2-((2-ethyl-6-(1-(2-(3-hydroxyazetidin-1-yl)-2-oxoethyl)piperidin-4-yl)imidazo[1,2-b]pyridazin-3-yl)(methyl)amino)thiazol-4-yl)-5-fluorobenzonitrile]", "IC50": "100 to 500"}]}]}
